Experimental data published in PubChem BioAssay AID192 (DTP/NCI, 2004).
Where “and” joins values, the source holds several entries; their conditions need not be identical. Equal values may be shown once. Toxic doses and inconclusive results are not listed.

Tested on: BDF1 mice, B16 melanoma ip, median survival T/C
Assay: NCI In Vivo Anticancer Drug Screen. Data for tumor model B16 Melanoma (intraperitoneal) in B6D2F1 (BDF1) mice
Details: endpoint: median survival time, higher = longer survival
In short: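 Antitumor activity is assessed in mice bearing a transplanted tumor, with survival or tumor size compared against vehicle-dosed controls and expressed as T/C.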

[1] = dose: 16.0 micrograms/kg/injection, schedule: Q01DX009 (ip), vehicle: saline
[2] = dose: 32.0 micrograms/kg/injection, schedule: Q01DX009 (ip), vehicle: saline

CC1NC(=O)C2Cc3ccc(O)c(c3)Oc3ccc(cc3)C(O)C(C(=O)N2C)N(C)C(=O)C(C)NC(=O)C(Cc2ccc(O)cc2)N(C)C(=O)C(C)NC1=O (stereo not drawn)
T/C (dose: 1.0 mg/kg/injection, schedule: Q01DX009 (ip), vehicle: saline with Tween-80): 97 % of control
T/C (dose: 2.0 mg/kg/injection, schedule: Q01DX009 (ip), vehicle: saline with Tween-80): 91 % of control
T/C (dose: 4.0 mg/kg/injection, schedule: Q01DX009 (ip), vehicle: saline with Tween-80): 99 % of control
T/C (dose: 8.0 mg/kg/injection, schedule: Q01DX009 (ip), vehicle: saline with Tween-80): 96 % of control
T/C (dose: 16.0 mg/kg/injection, schedule: Q01DX009 (ip), vehicle: saline with Tween-80): 94 % of control

CSC1SCC2C(=O)N(C)C(C(C)C)C(=O)OCC(NC(=O)c3cnc4ccccc4n3)C(=O)NC(C)C(=O)N(C)C1C(=O)N(C)C(C(C)C)C(=O)OCC(NC(=O)c1cnc3ccccc3n1)C(=O)NC(C)C(=O)N2C (stereo not drawn)
T/C (dose: 0.1 micrograms/kg/injection, schedule: Q01DX009 (ip), vehicle: saline with Tween-80): 106 % of control
T/C (dose: 0.2 micrograms/kg/injection, schedule: Q01DX009 (ip), vehicle: saline with Tween-80): 105 % of control
T/C (dose: 0.4 micrograms/kg/injection, schedule: Q01DX009 (ip), vehicle: saline with Tween-80): 108 % of control
T/C (dose: 0.9 micrograms/kg/injection, schedule: Q01DX009 (ip), vehicle: saline with Tween-80): 108 % of control
T/C (dose: 0.94 micrograms/kg/injection, schedule: Q01DX009 (ip), vehicle: Klucel (hydroxypropylcellulose) (HPC)): 93 % of control
T/C (dose: 0.94 micrograms/kg/injection, schedule: Q01DX009 (ip), vehicle: clinical formulation): 113 % of control
T/C (dose: 0.94 micrograms/kg/injection, schedule: Q01DX009 (ip), vehicle: distilled water + alcohol): 118 % of control
T/C (dose: 1.8 micrograms/kg/injection, schedule: Q01DX009 (ip), vehicle: saline with Tween-80): 151 % of control and 167 % of control
T/C (dose: 1.88 micrograms/kg/injection, schedule: Q01DX009 (ip), vehicle: Klucel (hydroxypropylcellulose) (HPC)): 88 % of control
T/C (dose: 1.88 micrograms/kg/injection, schedule: Q01DX009 (ip), vehicle: clinical formulation): 112 % of control
T/C (dose: 1.88 micrograms/kg/injection, schedule: Q01DX009 (ip), vehicle: distilled water + alcohol): 117 % of control
T/C (dose: 1.9 micrograms/kg/injection, schedule: Q01DX009 (ip), vehicle: saline): 156 % of control
T/C (dose: 3.75 micrograms/kg/injection, schedule: Q01DX009 (ip), vehicle: Klucel (hydroxypropylcellulose) (HPC)): 102 % of control
T/C (dose: 3.75 micrograms/kg/injection, schedule: Q01DX009 (ip), vehicle: distilled water + alcohol): 113 % of control
T/C (dose: 3.8 micrograms/kg/injection, schedule: Q01DX009 (ip), vehicle: saline): 123 % of control
T/C (dose: 7.5 micrograms/kg/injection, schedule: Q01DX009 (ip), vehicle: Klucel (hydroxypropylcellulose) (HPC)): 107 % of control
T/C (dose: 7.5 micrograms/kg/injection, schedule: Q01DX009 (ip), vehicle: distilled water + alcohol): 123 % of control
T/C (dose: 8.0 micrograms/kg/injection, schedule: Q01DX009 (ip), vehicle: other): 152 % of control and 155 % of control
T/C (dose: 15.0 micrograms/kg/injection, schedule: Q01DX009 (ip), vehicle: Klucel (hydroxypropylcellulose) (HPC)): 115 % of control
T/C (dose: 15.0 micrograms/kg/injection, schedule: Q01DX009 (ip), vehicle: clinical formulation): 169 % of control
T/C (dose: 15.0 micrograms/kg/injection, schedule: Q01DX009 (ip), vehicle: saline): 174 % of control
T/C (dose: 16.0 micrograms/kg/injection, schedule: Q01DX009 (ip), vehicle: other): 161 % of control
T/C (dose: 16.0 micrograms/kg/injection, schedule: Q01DX009 (ip), vehicle: saline sonified): 160 % of control and 168 % of control
T/C [1]: 160 % of control
T/C (dose: 30.0 micrograms/kg/injection, schedule: Q01DX009 (ip), vehicle: clinical formulation): 168 % of control
T/C (dose: 30.0 micrograms/kg/injection, schedule: Q01DX009 (ip), vehicle: saline with Tween-80): 88 % of control
T/C (dose: 30.0 micrograms/kg/injection, schedule: Q01DX009 (ip), vehicle: saline): 183 % of control
T/C (dose: 32.0 micrograms/kg/injection, schedule: Q01DX009 (ip), vehicle: other): 157 % of control and 158 % of control and 160 % of control
T/C (dose: 32.0 micrograms/kg/injection, schedule: Q01DX009 (ip), vehicle: saline sonified): 167 % of control and 170 % of control and 189 % of control
T/C [2]: 165 % of control
T/C (dose: 32.0 micrograms/kg/injection, schedule: Q04DX003 (ip), vehicle: saline sonified): 156 % of control
T/C (dose: 60.0 micrograms/kg/injection, schedule: Q01DX009 (ip), vehicle: clinical formulation): 173 % of control
T/C (dose: 60.0 micrograms/kg/injection, schedule: Q01DX009 (ip), vehicle: distilled water + alcohol): 168 % of control
T/C (dose: 60.0 micrograms/kg/injection, schedule: Q01DX009 (ip), vehicle: saline): 165 % of control
T/C (dose: 64.0 micrograms/kg/injection, schedule: Q01DX009 (ip), vehicle: other): 159 % of control and 189 % of control and 215 % of control
T/C (dose: 64.0 micrograms/kg/injection, schedule: Q01DX009 (ip), vehicle: saline sonified): 165 % of control and 172 % of control
T/C (dose: 64.0 micrograms/kg/injection, schedule: Q01DX009 (ip), vehicle: saline): 176 % of control
T/C (dose: 64.0 micrograms/kg/injection, schedule: Q04DX003 (ip), vehicle: saline sonified): 174 % of control
T/C (dose: 120.0 micrograms/kg/injection, schedule: Q01DX009 (ip), vehicle: Klucel (hydroxypropylcellulose) (HPC)): 154 % of control
T/C (dose: 120.0 micrograms/kg/injection, schedule: Q01DX009 (ip), vehicle: distilled water + alcohol): 173 % of control
T/C (dose: 120.0 micrograms/kg/injection, schedule: Q01DX009 (ip), vehicle: saline with Tween-80): 162 % of control and 189 % of control
T/C (dose: 128.0 micrograms/kg/injection, schedule: Q01DX009 (ip), vehicle: saline sonified): 164 % of control and 188 % of control
T/C (dose: 128.0 micrograms/kg/injection, schedule: Q01DX009 (ip), vehicle: saline): 166 % of control
T/C (dose: 128.0 micrograms/kg/injection, schedule: Q04DX003 (ip), vehicle: saline sonified): 165 % of control
T/C (dose: 192.0 micrograms/kg/injection, schedule: Q04DX003 (ip), vehicle: saline sonified): 180 % of control
T/C (dose: 240.0 micrograms/kg/injection, schedule: Q01DX009 (ip), vehicle: Klucel (hydroxypropylcellulose) (HPC)): 151 % of control
T/C (dose: 240.0 micrograms/kg/injection, schedule: Q01DX009 (ip), vehicle: saline with Tween-80): 115 % of control
T/C (dose: 256.0 micrograms/kg/injection, schedule: Q04DX003 (ip), vehicle: saline sonified): 175 % of control
T/C (dose: 480.0 micrograms/kg/injection, schedule: Q01DX009 (ip), vehicle: Klucel (hydroxypropylcellulose) (HPC)): 168 % of control

Nc1nnc[se]1
T/C (dose: 3.13 mg/kg/injection, schedule: Q01DX009 (ip), vehicle: saline with Tween-80): 106 % of control
T/C (dose: 6.25 mg/kg/injection, schedule: Q01DX009 (ip), vehicle: saline with Tween-80): 97 % of control
T/C (dose: 12.5 mg/kg/injection, schedule: Q01DX009 (ip), vehicle: saline with Tween-80): 102 % of control
T/C (dose: 25.0 mg/kg/injection, schedule: Q01DX009 (ip), vehicle: saline with Tween-80): 115 % of control

CCOC(=O)C(C)(C)Oc1ccc(Cl)cc1
T/C (dose: 50.0 mg/kg/injection, schedule: Q01DX009 (ip), vehicle: saline with Tween-80): 97 % of control and 113 % of control
T/C (dose: 100.0 mg/kg/injection, schedule: Q01DX009 (ip), vehicle: saline with Tween-80): 88 % of control and 113 % of control
T/C (dose: 200.0 mg/kg/injection, schedule: Q01DX009 (ip), vehicle: saline with Tween-80): 102 % of control

COc1cc2cc(c1Cl)N(C)C(=O)C[C@H](OC(=O)[C@H](C)N(C)C(C)=O)[C@]1(C)O[C@H]1[C@H](C)[C@@H]1C[C@@](O)(NC(=O)O1)[C@H](OC)C=C/C=C(\C)C2
T/C (dose: 0.5 micrograms/kg/injection, schedule: Q01DX009 (ip), vehicle: saline): 110 % of control
T/C (dose: 1.0 micrograms/kg/injection, schedule: Q01DX009 (ip), vehicle: saline + alcohol): 163 % of control
T/C (dose: 2.0 micrograms/kg/injection, schedule: Q01DX009 (ip), vehicle: saline): 117 % of control
T/C (dose: 2.0 micrograms/kg/injection, schedule: Q04DX003 (ip), vehicle: saline): 95 % of control
T/C (dose: 4.0 micrograms/kg/injection, schedule: Q01DX009 (ip), vehicle: saline): 105 % of control
T/C (dose: 4.0 micrograms/kg/injection, schedule: Q04DX003 (ip), vehicle: saline): 100 % of control
T/C (dose: 8.0 micrograms/kg/injection, schedule: Q01DX009 (ip), vehicle: saline): 155 % of control
T/C (dose: 8.0 micrograms/kg/injection, schedule: Q04DX003 (ip), vehicle: saline): 97 % of control
T/C [1]: 157 % of control
T/C (dose: 16.0 micrograms/kg/injection, schedule: Q04DX003 (ip), vehicle: saline): 108 % of control
T/C [2]: 97 % of control
T/C (dose: 32.0 micrograms/kg/injection, schedule: Q04DX003 (ip), vehicle: saline): 100 % of control
